Experimental data reported in PubChem BioAssay AID256 (DTP/NCI, 2004).
Where “and” joins values, the source holds several entries; their conditions need not be identical. Equal values may be shown once. Toxic doses and inconclusive results are not listed. Rule for the calls: active = survival T/C of 150% or more; inactive = T/C below 125% in these data.

Tested on: CD2F1 mice, L1210 leukemia ip, survival T/C
Assay: NCI In Vivo Anticancer Drug Screen. Data for tumor model L1210 Leukemia (intraperitoneal) in CD2F1 (CDF1) mice
Conditions: higher = longer survival
Method in brief: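 Transplantable tumor in mice; compound-treated vs vehicle-treated groups. Read-out = treated/control ratio of the measured endpoint.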

[1] = endpoint: mean survival time, dose: 50.0 mg/kg/injection, schedule: Q01DX009 (ip), vehicle: Klucel (hydroxypropylcellulose) (HPC)
[2] = endpoint: mean survival time, dose: 100.0 mg/kg/injection, schedule: Q01DX009 (ip), vehicle: Klucel (hydroxypropylcellulose) (HPC)
[3] = endpoint: mean survival time, dose: 200.0 mg/kg/injection, schedule: Q01DX009 (ip), vehicle: Klucel (hydroxypropylcellulose) (HPC)
[4] = endpoint: mean survival time, dose: 100.0 mg/kg/injection, schedule: Q04DX002 (ip), vehicle: saline with Tween-80
[5] = endpoint: mean survival time, dose: 200.0 mg/kg/injection, schedule: Q04DX002 (ip), vehicle: saline with Tween-80
[6] = endpoint: mean survival time, dose: 400.0 mg/kg/injection, schedule: Q04DX002 (ip), vehicle: saline with Tween-80
[7] = endpoint: mean survival time, dose: 100.0 mg/kg/injection, schedule: Q01DX009 (ip), vehicle: saline with Tween-80
[8] = endpoint: mean survival time, dose: 200.0 mg/kg/injection, schedule: Q01DX009 (ip), vehicle: saline with Tween-80
[9] = endpoint: mean survival time, dose: 400.0 mg/kg/injection, schedule: Q01DX009 (ip), vehicle: saline with Tween-80
[10] = endpoint: mean survival time, dose: 100.0 mg/kg/injection, schedule: Q01DX001 (ip), vehicle: saline with Tween-80
[11] = endpoint: mean survival time, dose: 200.0 mg/kg/injection, schedule: Q01DX001 (ip), vehicle: saline with Tween-80
[12] = endpoint: mean survival time, dose: 400.0 mg/kg/injection, schedule: Q01DX001 (ip), vehicle: saline with Tween-80
[13] = endpoint: mean survival time, dose: 100.0 mg/kg/injection, schedule: Q04DX003 (ip), vehicle: saline with Tween-80
[14] = endpoint: mean survival time, dose: 200.0 mg/kg/injection, schedule: Q04DX003 (ip), vehicle: saline with Tween-80
[15] = endpoint: mean survival time, dose: 400.0 mg/kg/injection, schedule: Q04DX003 (ip), vehicle: saline with Tween-80

Measured: T/C

O=CO.[Tl]
inactive: endpoint: mean survival time, dose: 5.0 mg/kg/injection, schedule: Q01DX001 (ip), vehicle: saline 104 % of control | endpoint: mean survival time, dose: 10.0 mg/kg/injection, schedule: Q01DX001 (ip), vehicle: saline 98 % of control | endpoint: mean survival time, dose: 20.0 mg/kg/injection, schedule: Q01DX001 (ip), vehicle: saline 95 % of control | endpoint: mean survival time, dose: 40.0 mg/kg/injection, schedule: Q01DX001 (ip), vehicle: saline 98 % of control | endpoint: mean survival time, dose: 80.0 mg/kg/injection, schedule: Q01DX001 (ip), vehicle: saline 104 % of control

CC(=O)OCC1OC2OC(C)(OC(C)(C)C)OC2C(OC(C)=O)C1OC(C)=O (stereo not drawn)
inactive: endpoint: mean survival time, dose: 12.5 mg/kg/injection, schedule: Q01DX009 (ip), vehicle: other 97 % of control | endpoint: mean survival time, dose: 25.0 mg/kg/injection, schedule: Q01DX009 (ip), vehicle: other 95 % of control | endpoint: mean survival time, dose: 50.0 mg/kg/injection, schedule: Q01DX009 (ip), vehicle: other 97 % of control | endpoint: mean survival time, dose: 100.0 mg/kg/injection, schedule: Q01DX009 (ip), vehicle: other 103 % of control | endpoint: mean survival time, dose: 200.0 mg/kg/injection, schedule: Q01DX009 (ip), vehicle: other 98 % of control

O=C(OCc1ccccc1)c1ccccc1
inactive: endpoint: mean survival time, dose: 100.0 mg/kg/injection, schedule: Q04DX002 (ip), vehicle: Klucel (hydroxypropylcellulose) (HPC) 90 % of control | endpoint: mean survival time, dose: 200.0 mg/kg/injection, schedule: Q04DX002 (ip), vehicle: Klucel (hydroxypropylcellulose) (HPC) 100 % of control | endpoint: mean survival time, dose: 400.0 mg/kg/injection, schedule: Q04DX002 (ip), vehicle: Klucel (hydroxypropylcellulose) (HPC) 90 % of control

O=C(/C=C/c1ccc(Cl)c(Cl)c1)/C=C/c1ccc(Cl)c(Cl)c1
inactive: [1] 98 % of control | [2] 94 % of control | [3] 90 % of control

CC(=O)OC1CCC2(C)C(=CCC3C2CCC2(C)C(OC(=O)c4ccccc4)CCC32)C1 (stereo not drawn)
inactive: endpoint: mean survival time, dose: 100.0 mg/kg/injection, schedule: Q04DX003 (ip), vehicle: acetone 104 % of control | endpoint: mean survival time, dose: 200.0 mg/kg/injection, schedule: Q04DX003 (ip), vehicle: acetone 90 % of control | endpoint: mean survival time, dose: 400.0 mg/kg/injection, schedule: Q04DX003 (ip), vehicle: acetone 86 % of control

Cc1cn(CC(=O)c2cc3ccccc3[nH]2)c(=O)[nH]c1=O
inactive: [4] 93 % of control | [5] 93 % of control | [6] 101 % of control

O=C(N/N=C/Cc1ccccc1)c1cc2ccccc2cc1O
inactive: [7] 101 % of control | [8] 95 % of control | [9] 108 % of control

COc1c(Cl)c(=O)oc2ccc(Cl)cc12
inactive: [10] 93 % of control | [11] 90 % of control | [12] 88 % of control

O=C1CCCN1C1CC2c3ccccc3C1c1cccc[n+]12 (stereo not drawn)
inactive: endpoint: mean survival time, dose: 5.0 mg/kg/injection, schedule: Q04DX003 (ip), vehicle: saline with Tween-80 95 % of control | endpoint: mean survival time, dose: 10.0 mg/kg/injection, schedule: Q04DX003 (ip), vehicle: saline with Tween-80 95 % of control | endpoint: mean survival time, dose: 20.0 mg/kg/injection, schedule: Q04DX003 (ip), vehicle: saline with Tween-80 97 % of control

CC/C=C(\C)C=O
inactive: endpoint: mean survival time, dose: 100.0 mg/kg/injection, schedule: Q01DX001 (ip), vehicle: saline 100 % of control | endpoint: mean survival time, dose: 200.0 mg/kg/injection, schedule: Q01DX001 (ip), vehicle: saline 97 % of control | endpoint: mean survival time, dose: 400.0 mg/kg/injection, schedule: Q01DX001 (ip), vehicle: saline 97 % of control

O=C(O)c1ccccc1C(=O)OC1CCC2CCCCC2C1 (stereo not drawn)
inactive: [7] 98 % of control | [13] 97 % of control | [8] 95 % of control | [14] 92 % of control | [9] 98 % of control | [15] 101 % of control

C[N+]12CCC34C5=CC(=O)C(=O)C=C5[N+]5(C)C(=O)CC6OCC=C(C1)C(CC32)C6C45 (stereo not drawn)
inactive: endpoint: mean survival time, dose: 75.0 mg/kg/injection, schedule: Q01DX001 (ip), vehicle: saline 106 % of control

N#CC1CNC(N)NC1N (stereo not drawn)
inactive: [1] 98 % of control | [2] 91 % of control | [3] 98 % of control

BrC1CCCCCCC1
inactive: [13] 92 % of control | [14] 98 % of control | [15] 95 % of control

Oc1ccc2ccccc2c1/C=N/N=C/c1c(O)ccc2ccccc12
inactive: endpoint: mean survival time, dose: 12.5 mg/kg/injection, schedule: Q01DX009 (ip), vehicle: Klucel (hydroxypropylcellulose) (HPC) 100 % of control | endpoint: mean survival time, dose: 25.0 mg/kg/injection, schedule: Q01DX009 (ip), vehicle: Klucel (hydroxypropylcellulose) (HPC) 96 % of control | [1] 104 % of control

COC(=O)Nc1ccc(NC(=O)c2cscn2)c(NC(=O)OC)n1
inactive: [13] 98 % of control | [14] 91 % of control

Cc1cccc(NC(=O)/C=C/c2ccccc2)c1C
inactive: [4] 98 % of control | [5] 94 % of control | [6] 94 % of control

N#CC(C#N)=NNc1ccc(S(=O)(=O)O)cc1
inactive: endpoint: mean survival time, dose: 100.0 mg/kg/injection, schedule: Q01DX009 (ip), vehicle: saline 93 % of control | endpoint: mean survival time, dose: 200.0 mg/kg/injection, schedule: Q01DX009 (ip), vehicle: saline 95 % of control | endpoint: mean survival time, dose: 400.0 mg/kg/injection, schedule: Q01DX009 (ip), vehicle: saline 95 % of control

C[C@]12CC[C@H](O)CC1=CC[C@@H]1[C@@H]2CC[C@]2(C)C(=O)CC[C@@H]12
inactive: [1] 98 % of control | [2] 102 % of control | [3] 94 % of control | endpoint: median survival time, dose: 25.0 mg/kg/injection, schedule: Q01DX009 (ip), vehicle: saline with Tween-80 101 % of control | endpoint: median survival time, dose: 50.0 mg/kg/injection, schedule: Q01DX009 (ip), vehicle: saline with Tween-80 101 % of control | endpoint: median survival time, dose: 100.0 mg/kg/injection, schedule: Q01DX009 (ip), vehicle: saline with Tween-80 92 % of control | endpoint: median survival time, dose: 200.0 mg/kg/injection, schedule: Q01DX009 (ip), vehicle: saline with Tween-80 92 % of control | endpoint: median survival time, dose: 400.0 mg/kg/injection, schedule: Q01DX009 (ip), vehicle: saline with Tween-80 91 % of control

C/C(=N/Nc1ccccc1)c1cccs1
inactive: [10] 102 % of control | [11] 102 % of control | [12] 94 % of control

O=C(O)CSc1nc(-c2ccccc2)c(-c2ccccc2)n1-c1ccccn1
inactive: endpoint: mean survival time, dose: 12.5 mg/kg/injection, schedule: Q01DX009 (ip), vehicle: water 96 % of control and 97 % of control | endpoint: mean survival time, dose: 25.0 mg/kg/injection, schedule: Q01DX009 (ip), vehicle: water 91 % of control and 100 % of control | endpoint: mean survival time, dose: 50.0 mg/kg/injection, schedule: Q01DX009 (ip), vehicle: water 96 % of control and 102 % of control | endpoint: mean survival time, dose: 100.0 mg/kg/injection, schedule: Q01DX009 (ip), vehicle: water 100 % of control and 102 % of control

Cc1ccccc1NC(=O)Oc1ccc(-c2ccccc2)cc1Cl
inactive: [4] 86 % of control | [5] 89 % of control | [6] 93 % of control

O=C(OC1COC(OCc2ccccc2)C(OC(=O)c2ccccc2)C1OC(=O)c1ccccc1)c1ccccc1 (stereo not drawn)
inactive: endpoint: mean survival time, dose: 6.25 mg/kg/injection, schedule: Q01DX009 (ip), vehicle: saline with Tween-80 102 % of control | endpoint: mean survival time, dose: 12.5 mg/kg/injection, schedule: Q01DX009 (ip), vehicle: saline with Tween-80 105 % of control | endpoint: mean survival time, dose: 25.0 mg/kg/injection, schedule: Q01DX009 (ip), vehicle: saline with Tween-80 108 % of control

CN(Cc1cnc2nc(N)nc(N)c2c1)c1ccc(C(=O)NC(CCC(=O)O)C(=O)O)cc1 (stereo not drawn)
active: endpoint: median survival time, dose: 4.0 mg/kg/injection, schedule: Q01DX005 (ip), vehicle: other 158 % of control | endpoint: median survival time, dose: 8.0 mg/kg/injection, schedule: Q01DX005 (ip), vehicle: other 158 % of control

CC(C)C1OCC(C)(C)C(c2ccccc2)O1 (stereo not drawn)
inactive: endpoint: mean survival time, dose: 50.0 mg/kg/injection, schedule: Q04DX002 (ip), vehicle: saline 93 % of control | endpoint: mean survival time, dose: 100.0 mg/kg/injection, schedule: Q04DX002 (ip), vehicle: saline 96 % of control | endpoint: mean survival time, dose: 200.0 mg/kg/injection, schedule: Q04DX002 (ip), vehicle: saline 110 % of control

CCOC(=O)C1C=CCCC1 (stereo not drawn)
inactive: [7] 97 % of control | [8] 103 % of control | [9] 95 % of control

O=S(=O)(O)c1ccc(N=Nc2ccc(O)cc2)cc1
inactive: endpoint: mean survival time, dose: 25.0 mg/kg/injection, schedule: Q04DX003 (ip), vehicle: saline with Tween-80 97 % of control | endpoint: mean survival time, dose: 50.0 mg/kg/injection, schedule: Q04DX003 (ip), vehicle: saline with Tween-80 107 % of control | [13] 100 % of control

O=C1OC(O)(c2ccc(Cl)cc2)C(Cc2ccccc2)=C1c1ccccc1 (stereo not drawn)
inactive: [4] 97 % of control | [5] 90 % of control | [6] 102 % of control
